According to patent US20070025976A1, “Process for the purification of coenzyme Q10” (Cargill, Inc., priority 2005, published 2007):

Test: Solubility of pure CoQ10 in ethanol
Format: physicochemical
Method: The chromatography product from Example 8 is dissolved in 200 proof ethanol to create a 9 wt-% solution at 55° C. This should create a slightly sub-saturated solution. Table VI below provides solubility data for pure CoQ10 in ethanol.

SMILES: COC1=C(OC)C(=O)C(C/C=C(\C)CC/C=C(\C)CC/C=C(\C)CC/C=C(\C)CC/C=C(\C)CC/C=C(\C)CC/C=C(\C)CC/C=C(\C)CC/C=C(\C)CCC=C(C)C)=C(C)C1=O [CoQ10, 2,3 dimethoxy-5 methyl-6 decaprenyl benzoquinone]
- Solubility (30 °C): 0.38 g/100 g Solvent
- Solubility (50 °C): 8.99 g/100 g Solvent
- Solubility (60 °C): 11.0 g/100 g Solvent
